Results taken from patent publication US20040185128A1, “Use of an extract of the root of balloon-flower for preventing and treating a degenerative brain disease or for enhancing memory” (priority 2001, published 2004).

Columns and labels:
Male rats = test: Passive-avoidance test after ethanol administration; format: in vivo, rat; conditions: 250 mg/kg composition (Tacrine 2.5 mg/kg) daily for a week; 3 g/kg 50% ethanol oral before learning; tested 24 hours later, up to 300 seconds
Protocol: Male rats, each weighing about 18 to 20 g, were raised under a condition of temperature 22±1° C. and 12L/12D photoperiod for 7 days while being allowed free access to food and water and used in the Test after 3 days of acclimatization.
The passive avoidance test composed of consecutively learning and testing procedures was conducted over a period of 2 days (interval: 24hours) using PACS-30 shuttle box system (Columbus Instrument Co.).
30 minutes after the 7th (last) administeration, a 3 g/kg dose of 50% ethanol was orally administered to respective rats. After 1 hour, the rats were placed in the bright area of a room which was divided into a dark and bright areas by a guillotin door and allowed to stay there for 30 seconds (the searching time). The guillotin door was opened to let the rats move to the dark side of the room. […] The time the rats took to move from the bright side to the dark side was measured automatically. […]
24 hours after the learning procedure, test procedure was conducted as follows. After 30 seconds of the searching time and opening of the gillontin door, the time the test animal took to move from the bright side to the dark side (latency time) was measured up to the extent 300 seconds. […]

[1] = biological target: T1, NMDA-receptor (glycine site) (Rattus norvegicus, UniProt P35439); test: Inhibition of [3H]MDL 105,519 binding to the glycine site of NMDA receptor (rat forebrain fraction); conditions: control compound, read-out: concentration inhibiting the ligand binding to receptor by 50%
T1 construct: Preparation of NMDA Receptor Fraction from Rat's Cerebrum; from tissue; host or cells: forebrain membrane fraction of male Sprague-Dawley rat
From the text: The fact that the compositions of the present invention suppresses neuron damage was confirmed as follows by examining the activity thereof in suppressing the binding formation of NMDA-receptor (glycine site) bound. NMDA (N-Methyl-D-Aspartate) which acts as an excitatory neurotransmitter induces neuron damage.
That is, an excess amount of a radioactive isotope-labeled ligand was allowed to react with the receptor, unbound ligand was removed by filtering using a glass fiber filter and the amount of the isotope-labeled ligand on the filter was measured to quantify the amount of ligand bound to receptor, and thus, the effects of the compositions of the present invention was determined.
Forebrain taken from a male Spargue-Dawley rat was sliced and a 10-fold volume of cold sucrose solution ([…]) was added thereto. The resulting mixture was homogenized (5 strokes) using a Teflon-glass homogenizer, and then centrifuged at 1000 g (10 min., 4° C.). The supernatant was centrifuged at 20000 g (20 min., 4° C.) to obtain a precipitate, a 20-fold volume of cold distilled water was added thereto and homogenized using Brinkman Polytron Homogenizer. […] The protein content was measured according to Bradford method and the protein concentration of suspension was adjusted to 1 mg/ml, divided into several fractions and kept at −70° C. […]

[2] = biological target: T2, recombinant human muscarinic acetylcholine receptor subtype 1 (mAChR-M1) (Homo sapiens, UniProt P11229); test: Inhibition of [3H]N-methyl-scopolamine binding to muscarinic acetylcholine receptor subtype 1; conditions: control compound, read-out: concentration inhibiting the ligand binding to receptor by 50%
T2 construct: purchased BSR BSR-MM1H; host or cells: Chinese Hamster Ovary (CHO) cells
T2 sequence (P11229 1-460): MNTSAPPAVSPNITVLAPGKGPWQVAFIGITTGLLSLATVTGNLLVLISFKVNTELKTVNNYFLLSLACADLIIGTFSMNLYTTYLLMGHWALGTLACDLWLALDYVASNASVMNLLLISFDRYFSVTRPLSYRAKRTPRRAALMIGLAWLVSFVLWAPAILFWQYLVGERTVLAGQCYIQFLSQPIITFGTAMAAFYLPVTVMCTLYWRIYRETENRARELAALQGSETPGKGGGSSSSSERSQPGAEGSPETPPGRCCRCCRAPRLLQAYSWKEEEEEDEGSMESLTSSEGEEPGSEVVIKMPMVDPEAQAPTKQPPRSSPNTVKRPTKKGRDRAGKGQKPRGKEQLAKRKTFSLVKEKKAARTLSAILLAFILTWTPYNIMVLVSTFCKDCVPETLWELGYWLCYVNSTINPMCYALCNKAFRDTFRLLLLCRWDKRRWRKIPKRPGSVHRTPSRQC
Protocol: The ability of each of the compositions obtained in Example 1 in enhancing acetylcholine activity was measured by examining to what extent the binding of a ligand to muscarin acetylcholine receptor subtype 1(M1) is suppressed. That is, an excess amount of a radioactive isotope-labeled ligand was allowed to react with the receptor, unbound ligand was removed by filtering using a glass fiber filter and the amount of the isotope-labeled ligand on the filter was measured to quantify the amount of ligand bound to receptor, and thus, the effects of the compositions of the present invention was determined.
As the receptor, recombinant human muscarinic acetylcholine receptor subtype 1(mAChR-M1, BSR-MM1H, BSR) expressed in Chinese Hamster Ovary (CHO) cells was used. 250 μl of a deep-frozen (−70° C.) receptor fraction was suspended in 10 ml of phosphate buffer saline (PBS) (pH 7.4) and the concentration of the protein was adjusted to 130 μg/ml.
50 μl of 0.5 nM [^3H] N-methyl-scopolamine (24,605 DPM) (NEN, NET-636) and 10 μl of a test composition were added to each well of 96-well microtiter plate (Inotech harvester). […] The filtermat was dried in a microwave oven and the amount of the ligand bound to the receptor was evaluated by determining the radioactivity with the liquid scintillation counter (MicroBeta 1450 Plus; Wallac, Finland). […]

## Nc1c2c(nc3ccccc13)CCCC2 [Comparative group, 9-amino-1,2,3,4-tetrahydroacrine]
Male rats
  Latency Time: 31 s

## O=C(O)c1cc(=O)c2c(Cl)cc(Cl)cc2[nH]1 [5,7-DCKA, 5,7-Dichlorokynurenic acid]
[1]
  IC50: 1000 nM

## C[N+]1(C)CCC(OC(=O)C(c2ccccc2)c2ccccc2)CC1 [4-DAMP methiodide]
[2]
  IC50: 24 nM
